Reference: PubChem BioAssay AID743417 (Broad Institute, 2014)
Inconclusive results are not listed. Activity calls are given as the source filed them.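 Rule for the calls: active = compounds lowering the luciferase signal with a fitted half-maximal dose at most twice their top valid dose (cut at about 30 µM in these data); inconclusive = flat fits with moderate signal loss, or poor fits; inactive = the rest.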

system: Clone20 osteoblast Shn3 3'UTR firefly luciferase, 24 h; test: Schnurri-3 3'UTR-luciferase signal suppressors – cell-based, Clone20 osteoblasts, luminescence, dry powder, set 2, dose response (AID 743417)

| Compound | AC50 |
| --- | --- |
| CCOc1ccc(OCc2cccc(C(=O)O)c2)cc1 | 0.649 µM |
| COc1cccc(CNc2nc(NCC3CC3)nc3ccsc23)c1OC | 4.48 µM |
| Cc1c(C(C)C)c(=O)n(-c2ccc(S(=O)(=O)NCc3ccccc3)cc2)n1C | 1.18 µM |
| COC(=O)C1=C(C(=O)OC)[C@@H]2N(Cc3ccccc3)c3ccccc3[C@@]23C[C@@H](C(=O)OC)N(C(=O)c2ccc(Br)cc2)C3=N1 | 8.52 µM |
| O=c1c2ccccc2nc2n1C(CSCc1cccc(C(F)(F)F)c1)CS2 (stereo not drawn) | 1.68 µM |
| C=CCNc1nc(-c2ccccn2)nnc1-c1ccccc1 | 3.17 µM |
| COc1ccccc1N/C(N)=N/c1nc(CSc2ccc(C)cc2)cc(=O)[nH]1 | 2.95 µM |
| Cc1ccc(S(=O)(=O)Nc2cccc3ncccc23)s1 | 3.85 µM |
| CC(=O)C1(C)CCC2C3C=C(C)C4=CC(=O)CCC4(C)C3CCC21C (stereo not drawn) | 9.83 µM |
| C=CCNc1nc(N2CCOCC2)c(C#N)c2c1CN(C)CC2 | > 70 µM (inactive) |
| COc1ccccc1C(=O)Nc1nc2ccccc2[nH]1 | 0.868 µM |
| CC(=O)Nc1ccc(NC(=O)c2nc(S(=O)(=O)Cc3ccccc3)ncc2Cl)cc1 | 0.773 µM |
| Cn1nc(C(C)(C)C)cc1C(=O)N1CCCCC1c1cc(C(=O)Nc2cccc3c2CCCC3)no1 (stereo not drawn) | 10.2 µM |
| CCCC(=O)NC(=S)Nc1ccc(N2CCN(C(=O)c3cccs3)CC2)cc1 | 10.1 µM |
| Cc1ccccc1NC(=O)CSc1nc2ccccc2c(=O)n1C | 7.64 µM |
| O=C(N[C@@H]1C/C=C\C[C@H](CC(=O)N(CCO)Cc2ccccc2)C(=O)NC[C@@H](c2ccccc2)OC1=O)OCC1c2ccccc2-c2ccccc21 | 4.5 µM |
| C[C@H]1C[C@@H](C)C(=O)[C@@H]([C@H](O)CC2CC(=O)NC(=O)C2)C1 | 0.307 µM |
| COc1cc(Nc2nc(-c3ccccc3)c3cc(C)ccc3n2)cc(OC)c1OC | 6.55 µM |
| Cc1ccc(Cl)cc1N1CCN(C(=O)C2CCC(=O)N(C3CCCCCC3)C2)CC1 (stereo not drawn) | 3.14 µM |
| C=C1C(=O)OC2CC3(C)OC3C3OC3C3=CC(OC3=O)C12 (stereo not drawn) | 1.45 µM |
| COCCN1Cc2cccc(C(=O)Nc3ccc4c(c3)OCCO4)c2C1=O | 27.1 µM |
| CCOC(=O)Cn1c(=O)c(-c2cc(Br)ccc2N)nc2ccccc21 | 0.758 µM |
| Cc1cc(S(=O)(=O)c2ccc([N+](=O)[O-])cn2)ccc1Br | 3.69 µM |
| CCN(CC)CCNc1cc(C)nc2c1C(=O)C(=O)C=C2N1CCCCC1 | 6.61 µM |
| COc1ccccc1-c1cc(C(F)(F)F)nc(S(=O)(=O)CCCC(=O)NCc2ccc(F)cc2)n1 | 4.43 µM |
| CCOc1ccc(N(C)S(=O)(=O)c2cc(-c3cc(C)no3)ccc2C(C)C)cc1 | 4.13 µM |
| Cc1ccc(C)c(NC(=O)CN(C)C(=O)c2cccc(S(=O)(=O)N3CCN(Cc4ccccc4)CC3)c2)c1 | 3.5 µM |

| Compound | AC50 |
| --- | --- |
| CC1CC(C)CC(C)C(O)C(C#N)=CC=CCC(C2CCCC2C(=O)O)OC(=O)CC(O)C(C)C1 (stereo not drawn) | < 0.26 µM |
| COc1ccc(CCNc2cc(N3CCN(C(=O)c4ccccc4OC)CC3)ccc2[N+](=O)[O-])cc1OC | 2.63 µM |
| CN1/C(=C\C(=O)CN2C(=O)NC3(CCCCCC3)C2=O)C(C)(C)c2ccccc21 | 2.66 µM |
| O=c1oc2ccccc2cc1-c1cn2ccccc2n1 | 3.64 µM |
| Cc1ccc(S(=O)(=O)NCCc2cc3ccc(C)cc3[nH]c2=O)cc1 | > 70 µM (inactive) |
| COCCn1c(SCC(=O)/C=C2\N(C)c3ccccc3C2(C)C)nnc1-c1ccncc1 | 2.65 µM |
| FC(F)(F)c1nc(-c2cccs2)ncc1-c1nnnn1-c1ccc(Cl)cc1 | 2.1 µM |
| CC(C)=CCc1cc([C@@H]2COc3c(ccc4c3C=CC(C)(C)O4)C2)c(O)cc1O | 7.54 µM |
| OC[C@@H]1CN(Cc2ccc(-c3ccccc3)cc2)C[C@H](n2cnc3c(NCc4ccc(F)cc4)ncnc32)O1 | 1.58 µM |
| CN(CC(=O)Nc1cc(S(=O)(=O)N2CCCC2)ccc1Cl)Cc1ccc2c(c1)OCO2 | 13.1 µM |
| Cc1cc(C(=O)NNS(=O)(=O)c2cc(C(=O)O)ccc2Cl)c(C)n1-c1ccccc1 | 25.7 µM |
| COc1ccccc1N1CCN(c2ncc(C(=O)N3CCN(c4cccc(Cl)c4)CC3)c3ccccc23)CC1 | 0.572 µM |
| COc1ccccc1-c1cc(C(F)(F)F)nc(S(=O)(=O)CCCC(=O)N2CCCCC2C)n1 (stereo not drawn) | 2.65 µM |
| CCCCn1c(CN2CCN(c3ccc(F)cc3)CC2)nc2c1c(=O)n(C)c(=O)n2C | 2.73 µM |
| Cc1nc2ccc(NS(=O)(=O)c3ccc4c(c3)OCCO4)cc2s1 | 0.635 µM |
| COCC1CCN(C(=O)c2cc(COc3ccc4ncccc4c3)on2)CC1 | 2.7 µM |
| O=C(c1ccc2c(=O)n(-c3ccccc3)c(=S)[nH]c2c1)N1CCCCC1 | 1.44 µM |
| CCc1nc(N2CCN(C(C)=O)CC2)c2c3c(sc2n1)CC(C(C)(C)C)CC3 (stereo not drawn) | 6.76 µM |
| O=C(/C=C/c1ccc(OCc2ccccc2)c(OCc2ccccc2)c1)c1cccnc1 | 5.19 µM |
| CCCC(c1nnnn1Cc1ccc(OC)cc1)N1CCN(c2ccccc2)CC1 (stereo not drawn) | 31.9 µM |
| Cc1ccc(C(=O)NC2CCCc3c2cnn3-c2ccc(F)cc2F)cn1 (stereo not drawn) | 0.921 µM |
| CCc1ccc(O)c(CNCCNCc2cc(CC)ccc2O)c1 | 1.38 µM |
| O=C(c1n[nH]c(=O)c2ccccc12)N1CCN(C2c3ccccc3-c3ccccc32)CC1 | 7.69 µM |
| NC1=NC[C@@H](CC2CCCCC2)N1CCc1cc(C(F)(F)F)cc(C(F)(F)F)c1 | 9.92 µM |
| O=C(NNC(=O)C(c1ccccc1)c1ccccc1)c1ccccn1 | 2.87 µM |
| Cc1cccc(NC(=O)c2nc(S(=O)(=O)Cc3ccccc3)ncc2Cl)c1 | 2.66 µM |
